Reference: patent US8211909B2, “Treatment of antibiotic-resistant bacteria infection” (TaiGen Biotechnology Co., Ltd., priority 2008, dated 2012)
Values after ≈ are worked out from the molar mass of the structure shown. Where two headings read alike, the source gives them in different places.

Assays:
[1] = system: Vancomycin-resistant E. faecalis; test: MIC by agar dilution (CLSI-M100-S18), Taiwan Enterococci isolates; assay type: cell-based, Enterococcus faecalis
Experimental: (§1) Compound 1 was tested for its inhibitory effect against multidrug-resistant Methicillin-resistant Staphylococcus aureus and Enterococci obtained by 10 medical centers in all regions of Taiwan. MICs were determined using the agar dilution methods recommended by the Clinical and Laboratory Standards Institute (CLSI-M100-S18).

[2] = system: E. faecalis; test: CANWARD 2007 gram-positive cocci, CLSI broth microdilution; assay type: cell-based; parameters: unit not given beside the values; settings: E. faecalis (81)
Experimental: (§2) From January-December 2007, 12 hospitals across Canada submitted isolates from patients attending hospital clinics, emergency rooms, medical and surgical wards, and intensive care units. 7881 isolates (CANWARD 2007) were collected including 3473 gram-positive cocci. Susceptibility testing for Compound 1 and Levofloxacin was performed using the Clinical and Laboratory Standards Institute broth microdilution.

[3] = system: S. aureus (MSSA, CA-MRSA, HA-MRSA, VISA, VRSA); test: CANWARD 2007 / NARSA gram-positive cocci, CLSI broth microdilution; assay type: cell-based, Staphylococcus aureus; parameters: MIC50 / MIC90: unit not given here
Experimental: as §2

[4] = system: multidrug-resistant Methicillin-resistant Staphylococcus aureus; test: MIC by agar dilution (CLSI-M100-S18), Taiwan multidrug-resistant MRSA isolates; assay type: cell-based; settings: for MIC50 / MIC90: Staphylococcus aureus, MRSA
Experimental: as §1

[5] = system: Methicillin-resistant Staphylococcus aureus (MRSA) isolates; test: MIC by broth microdilution (CLSI) against CAN-ICU MRSA isolates; assay type: cell-based; settings: for MIC50 / MIC90 / MIC: Staphylococcus aureus; for MIC50: read-out: MIC50; for MIC90: read-out: MIC90
Source text: MRSA isolates (n=193) were obtained as part of the Canadian National Intensive Care Unit (CAN-ICU) Study. 19 medical centers from all regions of Canada with active ICUs participated in the CAN-ICU study included. They were requested to only obtain “clinically significant” specimens from patients with a presumed infectious disease. Surveillance swabs, eye, ear, nose and throat swabs were excluded. Anaerobic organisms and fungal organisms were also excluded.
From September 2005-June 2006 (inclusive), each center collected a maximum of 300 consecutive pathogens isolated from blood, urine, tissue/wound, and respiratory specimens (one pathogen per cultured site per patient) of ICU patients. These isolates were shipped to the reference laboratory (Health Sciences Centre, Winnipeg, Canada) on Amies charcoal swabs, subcultured in appropriate media, and stocked in skim milk at −80° C.
All isolates underwent mecA PCR, as well as molecular characterization (including PVL analysis and fingerprinting), as previously described, to assess whether they were community-associated or healthcare-associated (Christianson et al., J Clin Microbiol. 2007, 45 (6): 1904-11; Mulvey et al., J Clin. Microbiol. 2001, 39(10): 3481-5; Mulvey et al., Emerg Infect Dis. 2005,11(6): 844-50; Oliveira et al., Antimicrob Agents Chemother. 2002, 46(7): 2155-61). The isolates were also subtyped using pulsed-field gel electrophoresis (PFGE) following the Canadian standardized protocol as previously described (Mulvey et al., J Clin Microbiol. 2001, 39(10): 3481-5). Their PFGE fingerprints thus obtained were analyzed with BioNumerics v3.5 (Applied Maths St. Marten-Latem, Belgium) using a position tolerance of 1.0 and an optimization of 1.0. Strain relatedness was determined as previously described (Tenover et al., 1995). The fingerprints of the isolates were compared to the national MRSA fingerprint database and were grouped into one of 10 Canadian epidemic MRSA (CMRSA-1, CMRSA-2, etc) as previously described (Mulvey et al., Emerg Infect Dis. 2005,11(6):844-50).
Compound 1 and other antibiotics were tested for their inhibitory activity against the MRSA isolates using the broth microdilution guidelines as stipulated by the Clinical and Laboratory Standards Institute.

[6] = system: Staphylococcus epidermidis (MSSE, MRSE); test: CANWARD 2007 gram-positive cocci, CLSI broth microdilution; assay type: cell-based; parameters: MIC50 / MIC90: unit not given beside the values
Experimental: as §2

[7] = system: H. pylori isolates; test: MIC by agar dilution against 200 H. pylori isolates (Taiwan); assay type: cell-based, Helicobacter pylori
Experimental: MICs were determined using the agar dilution methods recommended by the Clinical and Laboratory Standards Institute (CLSI-M100-S18).

[8] = system: Vancomycin-resistant E. faecium; test: MIC by agar dilution (CLSI-M100-S18), Taiwan Enterococci isolates; assay type: cell-based, Enterococcus faecium
Experimental: as §1

[9] = Enterococcus faecalis, Vancomycin-resistant E. faecalis (n = 34)
[10] = Ciprofloxacin-resistant MRSA (n = 20)
[11] = Ciprofloxacin-susceptible MRSA (n = 20)
[12] = Daptomycin-nonsusceptible MRSA (n = 5)
[13] = Vancomycin-intermediate MRSA (n = 50)
[14] = MRSA / USA100, USA 100/800 (HA-MRSA)
[15] = MRSA / USA200, USA 200 (HA-MRSA)
[16] = MRSA / USA300, USA 300 (CA-MRSA)
[17] = MRSA / USA400, USA 400 (CA-MRSA)
[18] = MRSA / USA600, USA 600 (HA-MRSA)
[19] = Helicobacter pylori, 200 isolates of H. pylori
[20] = Enterococcus faecium, Vancomycin-resistant E. faecium (n = 78)

Q: What does the source list for `COc1c(N2C[C@@H](C)C[C@H](N)C2)ccc2c(=O)c(C(=O)O)cn(C3CC3)c12` [Compound 1, (3S,5S)-7-[3-amino-5-methyl-piperidinyl]-1-cyclopropyl-1,4-dihydro-8-methoxy-4-oxo-3-quinolinecarboxylic acid]?
A: MIC50 [1, 9]: 4 µg/mL (≈ 10.8 µM); MIC90 [1, 9]: 4 µg/mL (≈ 10.8 µM); MIC Range ([1]; Vancomycin-resistant E. faecalis (n = 34)): 0.12 to 8 µg/mL; inhibition (in words) ([1]; Vancomycin-resistant Enterococcus faecalis): effective; MIC50 [2]: 0.12; MIC90 [2]: 1; MIC50 ([3]; CA-MRSA (23)): 0.25; MIC90 ([3]; CA-MRSA (23)): 0.5; MIC50 ([3]; HA-MRSA (91)): 4/>4; MIC90 ([3]; HA-MRSA (91)): 4/>4; activity compared with Levofloxacin (in words) ([3]; MRSA, VISA, VRSA): more active than Levofloxacin; MIC50 ([3]; MSSA (372)): 0.03; MIC90 ([3]; MSSA (372)): 0.12; MIC50 ([3]; VISA (12), NARSA isolates): 1; MIC90 ([3]; VISA (12), NARSA isolates): 2; median MIC (single value under head MIC50/MIC90) ([3]; VRSA (7), NARSA isolates): 2; MIC Range [4, 10]: 0.5 to 1 µg/mL; MIC Range [4, 11]: ≦0.03-0.06 μg/mL; MIC Range [4, 12]: 0.5 to 1 µg/mL; inhibition (in words) ([4]; MRSA isolates that are Ciprofloxacin-resistant, Vancomycin-intermediate-resistant, Daptomycin-nonsusceptible): effective; MIC50 [4, 10]: 0.5 µg/mL (≈ 1.35 µM); MIC90 [4, 10]: 1 µg/mL (≈ 2.69 µM); MIC50 [4, 11]: ≤ 0.03 µg/mL; MIC90 [4, 11]: ≤ 0.03 µg/mL; MIC50 [4, 12]: 0.5 µg/mL (≈ 1.35 µM); MIC90 [4, 12]: 1 µg/mL (≈ 2.69 µM); MIC50 [4, 13]: 0.5 µg/mL (≈ 1.35 µM); MIC90 [4, 13]: 2 µg/mL (≈ 5.38 µM); MIC Range [4, 13]: 0.03 to 8 µg/mL; activity against community-associated versus healthcare-associated MRSA strains (in words) ([5]; CA-MRSA vs HA-MRSA strains): more active against community-associated-MRSA strains than healthcare-associated-MRSA strains; inhibition of MRSA (in words) ([5]; MRSA isolates): effectively inhibited; MIC50 [5, 14]: 4 µg/mL (≈ 10.8 µM); MIC90 [5, 14]: > 4 µg/mL; MIC50 [5, 15]: 2 µg/mL (≈ 5.38 µM); MIC90 [5, 15]: 2 µg/mL (≈ 5.38 µM); MIC50 [5, 16]: 0.5 µg/mL (≈ 1.35 µM); MIC90 [5, 16]: 0.5 µg/mL (≈ 1.35 µM); MIC50 [5, 17]: 0.06 µg/mL (≈ 0.162 µM); MIC90 [5, 17]: 0.06 µg/mL (≈ 0.162 µM); MIC50 [5, 18]: 2 µg/mL (≈ 5.38 µM); MIC90 [5, 18]: 2 µg/mL (≈ 5.38 µM); MIC50 ([5]; MRSA (n = 193)): 4 µg/mL (≈ 10.8 µM); MIC90 ([5]; MRSA (n = 193)): > 4 µg/mL; MIC ([5]; MRSA (n = 193), read-out: MIC Range Max): > 4 µg/mL; MIC ([5]; MRSA (n = 193), read-out: MIC Range Min): 0.03 µg/mL (≈ 0.0808 µM); activity compared with Levofloxacin (in words) ([6]; MRSE): more active than Levofloxacin; MIC50 ([6]; MRSE (9)): 2/2; MIC90 ([6]; MRSE (9)): 2/2; MIC50 ([6]; MSSE (32)): 0.03; MIC90 ([6]; MSSE (32)): 0.5; inhibition (in words) ([7]; H. pylori isolates): effectively inhibited; inhibition compared with other quinolones (in words) ([7]; H. pylori isolates): more effective in inhibiting the isolates of H. pylori than Ciprofloxacin, Levofloxacin, and Moxifloxacin, and comparable to Gemifloxacin; MIC50 [7, 19]: 60 µg/mL (≈ 162 µM); MIC90 [7, 19]: 250 µg/mL (≈ 673 µM); MIC50 [8, 20]: 4 µg/mL (≈ 10.8 µM); MIC90 [8, 20]: 16 µg/mL (≈ 43.1 µM); MIC Range ([8]; Vancomycin-resistant E. faecium (n = 78)): 0.06 to 16 µg/mL; inhibition (in words) ([8]; Vancomycin-resistant Enterococcus faecium): effective
